# Key:
# [1] = test system: Rat cortical neurones; assay: Neuritogenesis in cortical neurones; type: cell-based; conditions: 24 h; for Neurones displaying neurites (%): control 39.35 ± 2.06
# Method: Rat cortical neurones were cultured by modification of a previously described method (Singer, et al., Neuroscience Letters, 1996, 212, pp. 13-16). Cells were cultured with sarsasapogenin, smilagenin, vehicle (DMSO 0.25%), GDNF, BDNF or NGF for 24 h. For each group, 15 pictures showing neurones displaying neurites were selected at random in each field, and for each neurone the longest neurite was measured. The neurite number was measured by counting the number of neurones displaying neurites, the number of neurones not displaying neurites and the number of total neurones in each field. Six fields per well were examined.
# The results are shown in Table 15 below, expressed as the number of neurones with neurites per field as a percentage of the total number of neurones per field.
# [2] = test system: Rat spinal motor neurones; assay: Neuronal survival and neurite outgrowth in spinal motor neurones; type: cell-based; conditions: 3 days
# Method: Rat spinal motor neurones were prepared according to a previously described method (Martinou et al, Neuron, 8, 737-744, 1992). Following 3 days of culturing with sarsasapogenin, smilagenin, vehicle (DMSO, 0.25%), Xaliproden, or BDNF, spinal cord motor neurones were washed twice in PBS, fixed in a cold solution of alcohol (95%) and acetic acid (5%) for 5 min and then rinsed 3 times in PBS. Neurones were stained using a monoclonal antibody anti β-tubulin and an anti mouse Immunoglobulin G. These antibodies stained neurone cell bodies (quantifying the neuroprotective effect) and neurites (quantifying the neurotrophic effect). The cell nuclei were stained by a fluorescent marker. After 1 h of incubation, cells were washed 3 times in PBS. […] A series of pictures were taken using a camera controlled by computer software. All the images were taken under the same conditions. Analyses of the number of cells labelled with anti β-tubulin antibodies and of the total number of cells (number of stained nuclei) were performed using LUCIA 6.0 software.
# [3] = test system: Rat sensory neurones; assay: Neuronal survival in sensory neurones; type: cell-based, Wistar rat; conditions: 2 days
# Method: Rat sensory neurones were obtained from Wistar rat embryos on the 15th day of gestation. Cells were cultured at 37° C. in 5% CO2/95% air atmosphere. Following 2 days of culturing with sarsasapogenin, smilagenin, vehicle (DMSO, 0.25%) or NGF, sensory neurones were rinsed twice with PBS and fixed in paraformaldehyde (4%) in PBS for 30 min at 4° C. Cells were permeabilised with Triton X-100 (0.1%) and non-specific sites were saturated using foetal bovine serum. Prior to staining, cells were incubated for 2 h at room temperature with a mixture of primary antibodies: anti-neurofilament 68 and 200 in PBS containing foetal bovine serum 5%. Prior to washing, slides were demounted and the cells were washed twice with PBS for 5 min, placed in a dark room for 1 h and incubated with a secondary antibody: anti-mouse coupled with cyanine 3 (Cy3; 1/1600) and an anti-rabbit coupled with fluoroisothiocyanate (FITC; 1/200) in PBS containing foetal bovine serum (5%). Slides were washed twice with PBS for 5 min and mounted on coverslips using Mowiol, an antioxidative solution (9% w/v) in glycerol (22%) buffered with Tris/HCl ([…]; pH 8.5). Slides were left overnight at room temperature to harden and stored in light protected conditions. Slides were viewed using a DAPI/FITC/Cy3 triple filter microscope with a ×20 objective. A series of photographs per well were taken at random using a digital camera.
# [4] = test system: rat primary cortical neurones; assay: Inhibition of induced neurite outgrowth by K252a or PD98059; type: cell-based; conditions: 30 nM, 24 h
# Method: (§1) Cortical neurones were cultured as detailed above. Neurones were exposed to vehicle (DMSO, 0.25%) or K252a (100 nM) for 1 h. After 1 h, vehicle, sarsasapogenin, smilagenin (30 nM) or BDNF (1.85 nM) was added to the medium in the maintained presence of K252a. Following 24 h exposure to sarsasapogenin or smilagenin (30 nM), vehicle (DMSO, 0.25%) or BDNF (1.85 nM), the neurones were washed using phosphate-buffered saline (PBS) and fixed in glutaraldehyde (2.5%) in PBS. Photographs of 40-60 neurones expressing neurites were taken with a camera fixed on a microscope (objective ×20, Nikon). The neurite length was measured by an analysis of the photographs.
# as §1, with “PD98059 (10 μM)” for “K252a (100 nM)”, “vehicle,” for “vehicle, sarsasapogenin,”, “PD98059.” for “K252a.”, “to” for “to sarsasapogenin or”, “PBS” for “phosphate-buffered saline (PBS)”
# [5] = test system: Rat spinal motor neurones; assay: Reversal of glutamate-induced damage in spinal motor neurones; type: cell-based
# Method: The rat spinal motor neurones were prepared as detailed above. On day 10, the medium was removed and the cultures exposed to glutamate (4 μM) for 10 min at 37° C. in 5% CO2/95% air atmosphere in defined medium. After the glutamate exposure, cultures were washed with DMEM at 37° C. then placed in fresh culture medium containing sarsasapogenin, smilagenin, vehicle or BDNF. After 48 h, the extent of motor neurone damage was determined as detailed above. This Example develops the work reported in Example 8 of PCT patent application No. WO-A-03/082893.
# [6] = test system: C57b1/6 RJ mice; assay: Sciatic nerve crush model; type: in vivo, Mouse; conditions: for Degenerated fibres (% of control): nerve crush alone 109.10 ± 2.65; for Recovery of nerve function as measured by CMAP parameters (amplitude, latency, duration): sarsasapogenin 3, smilagenin 0.3 and 3 mg/kg/day, oral gavage in oil, 6 weeks
# Description: The sciatic nerve crush model is a well characterised reversible model for motor neurone disease and post-traumatic nerve injuries (McMahon and Priestley, Current Opinion in Neurobiology, 1995, 5, pp. 616-624). The nerve damage is produced by mechanical pressure using haemostatic forceps, applied twice, 5 mm proximal to the trifurcation of the right sciatic nerve of these mice. […] The loss of nerve function recovers progressively over a 4-5 week period after the mechanical insult.
# 4-Methylcatechol (10 μg/kg/day, i.p.) was used as a positive control (Kaechi et al., Journal of Phamacology and Experimental Therapeutics, 1995, 272, pp. 1300-1304).
# C57b1/6 RJ mice were anaesthetised with ketamine chlorhydrate (60 mg/kg, i.p.). The sciatic nerve was surgically exposed at mid thigh level and crushed at 5 mm proximal to the trifurcation of the sciatic nerve. The nerve was crushed twice for 30 s with a haemostatic forceps with a 90-degree rotation between each crush. […] The loss of nerve function recovered progressively over a 4-5 week period after mechanical insult. Electromyographic recordings were assessed as described above.
# [7] = 0.03 nM for 48 h after glutamate 4 μM 10 min
# [8] = 3 nM for 48 h after glutamate 4 μM 10 min
# [9] = 300 nM for 48 h after glutamate 4 μM 10 min
SMILES,Neurite length (% of control) ([1]; 3 nM),Neurones displaying neurites (%) ([1]; 3 nM),Neurite length (% of control) ([1]; 30 nM),Neurones displaying neurites (%) ([1]; 30 nM),Neurite outgrowth (% of control) ([2]; 30 nM),Neuronal survival (% of control) ([2]; 30 nM),Neurite outgrowth (% of control) ([2]; 100 nM),Neuronal survival (% of control) ([2]; 100 nM),Neuronal survival (% of control) ([3]; 30 nM),Neurite length (% of control) ([4]; no inhibitor),Neurite length (% of control) ([4]; with K252a (100 nM)),"Neuronal survival (% of control) [5, 7]","Neuronal survival (% of control) [5, 8]","Neuronal survival (% of control) [5, 9]",Degenerated fibres (% of control) ([6]; 3 mg/kg/day oral),"Recovery of nerve function as measured by CMAP parameters (amplitude, latency, duration) [6]",Neuronal survival (% of control) ([3]; 300 nM),Neurite length (% of control) ([4]; with PD98059 (10 μM)),Degenerated fibres (% of control) ([6]; 0.3 mg/kg/day oral)
"C[C@H]1CC[C@@]2(OC1)O[C@H]1C[C@H]3[C@@H]4CC[C@@H]5C[C@@H](O)CC[C@]5(C)[C@H]4CC[C@]3(C)[C@H]1[C@@H]2C [Sarsasapogenin, sarsasapogenin]",168.29 ± 6.12 % of control,52.40 ± 2.63,156.74 ± 4.06 % of control,57.32 ± 2.54,129.98 ± 5.47 % of control,119.14 ± 3.33 % of control,137.38 ± 7.93 % of control,117.87 ± 3.63 % of control,130.83 ± 1.75 % of control,126.74 ± 5.76^++++ % of control,93.12 ± 2.88 % of control,101.09 ± 4.12 % of control,108.10 ± 3.56 % of control,120.43 ± 7.46 % of control,33.50 ± 12.60 % of control,significantly improved the recovery of nerve function,–,–,–
"C[C@@H]1CC[C@@]2(OC1)O[C@H]1C[C@H]3[C@@H]4CC[C@@H]5C[C@@H](O)CC[C@]5(C)[C@H]4CC[C@]3(C)[C@H]1[C@@H]2C [Smilagenin, smilagenin]",159.03 ± 4.91 % of control,53.84 ± 2.93,176.71 ± 6.34 % of control,53.46 ± 2.13,163.66 ± 9.28 % of control,120.11 ± 2.92 % of control,164.75 ± 5.57 % of control,121.21 ± 2.75 % of control,–,146.78 ± 6.75^++++ % of control,94.36 ± 3.96 % of control,90.98 ± 2.46 % of control,101.53 ± 3.18 % of control,106.61 ± 4.24 % of control,−8.10 ± 6.03 % of control,significantly improved the recovery of nerve function,124.02 ± 7.64 % of control,120.27 ± 5.80 % of control,16.70 ± 4.23 % of control

# Source: US20120034193A1, “TREATMENT OF NEUROTROPHIC FACTOR MEDIATED DISORDERS” (priority 2009, published 2012)
